Laboratory results as given in patent US20090258869A1, “METHODS AND COMPOUNDS FOR TREATMENT OR PREVENTION OF SUBSTANCE-RELATED DISORDERS” (The Regents of the University of California, priority 2008, published 2009).

Assays:
[1] = general statement, no test described; cited from earlier work
[2] = system: animals; conditions: literature; cited from earlier work
[3] = system: Tyrosine hydroxylase (TH); assay: TH protein levels (immunoreactivity) by Western blot in ethanol-treated SH-SY5Y cells; type: cell-based, human
Description: (§1) Cell culture. […] MEM nonessential amino acid solution (Invitrogen).
(§2) Treatments. Cells were treated with ethanol for 12-48 h in low serum media by replacing the media with ethanol every 12 h. […] PI-PLC was incubated with cells at a concentration of 0.3 u/ml for 1 h as described previously (1). Anti-GDNF neutralizing antibodies were dissolved in PBS and were used at a concentration of 10 μg/ml.
(§3) Western blot and immunoprecipitation. Cells were collected and lysed in RIPA buffer plus protease and phosphatase inhibitor cocktails for Western blot and immunoprecipitation as described previously (1,30). Briefly, 15 μg of each homogenate was subjected to an SDS-PAGE gel and blotted on a nitrocellulose membrane for Western blot analysis with anti-TH antibody or other primary antibodies, followed by reprobing with anti-Actin antibody. Alternatively, 500 μg of each homogenate was incubated with 5 μg of anti-TH, anti-HSP90 or anti-Akt antibodies in TBS-T buffer overnight at 4° C.1 followed by a 2-h incubation with Protein G agarose beads. Immunoprecipitates were separated on an SDS-PAGE gel for Western blot analysis.
(§4) Quantification and statistical analysis.

[4] = system: Hsp90; assay: Hsp90 protein levels by Western blot in SH-SY5Y cells; type: cell-based, human
Description: as §1, §2, §3, §4

[5] = system: TH-Hsp90 association; assay: Co-immunoprecipitation of TH with Hsp90 in SH-SY5Y cells; type: cell-based, human; conditions: 100 mM ethanol 24 h
Description: Treatments. […] PI-PLC was incubated with cells at a concentration of 0.3 u/ml for 1 h as described previously (1). Anti-GDNF neutralizing antibodies were dissolved in PBS and were used at a concentration of 10 μg/ml.

[6] = system: Tyrosine hydroxylase (TH); assay: Pulse-chase analysis of 35S-labeled TH protein stability in SH-SY5Y cells; type: cell-based, human
Description: as §1
Pulse-chase analysis. 24 h after ethanol treatment, cells were labeled following a pulse-chase procedure as described previously (31) with modifications. Briefly, cells were incubated with methionine/cystine-free DMEM (Invitrogen) containing 1% dialyzed FBS for 1 h and then labeled in the Met/Cysfree medium containing 25 μCi of Amersham Redivue Pro-Mix L-[35S] in vitro Cell Labeling Mix per ml for 3 h. Dialysis of FBS was performed against the Met/Cys-free medium overnight. After labeling, cells were washed twice with the normal medium and chased in the normal medium without ethanol for 2-8 h before homogenizing as described above. Homogenates were centrifuged and protein concentrations of the supernatants were determined. An equal amount of protein from each sample was immunoprecipitated with anti-TH antibody and separated by electrophoresis on an 8% SDS gel. Autoradiography was performed by exposure of the dried gels to Amersham Storage Phosphor Screen and visualization of radioactive signals using the Typhoon 9410 Variable Mode Imager (GE Healthcare).
as §4

[7] = system: TH mRNA; conditions: 100 mM ethanol 12 h or 24 h
[8] = system: Akt kinase and Hsp90 association; conditions: 100 mM ethanol 24 h
[9] = system: GDNF gene expression; conditions: in vitro in SH-SY5Y cells and in the midbrain region containing the VTA in vivo; previously reported; cited from earlier work
[10] = 100 mM ethanol 24 h, 25 ng/ml GDNF added for the last 12 h

## CO[C@H]1/C=C\C=C(/C)C(=O)NC2=CC(=O)C(NCCN(C)C)=C(C[C@@H](C)C[C@H](OC)[C@H](O)[C@@H](C)/C=C(\C)[C@@H]1OC(N)=O)C2=O [17-DMAG, 17-(2 dimethylaminoethyl)amino-17-desmethoxy-geldanamycin]
[1]
  water solubility: more soluble

## COC1=C2C[C@@H](C)C[C@H](OC)[C@H](O)[C@@H](C)/C=C(\C)[C@H](OC(N)=O)[C@@H](OC)/C=C\C=C(/C)C(=O)NC(=CC1=O)C2=O [GA, Geldanamycin]
[1]
  water solubility: less than ideal

## O=C1CC[C@@]2(O)[C@H]3Cc4ccc(O)c5c4[C@@]2(CCN3CC2CC2)[C@H]1O5 [Naltrexone, naltrexone]
[2]
  ethanol consumption in animal studies: decrease

## C[C@@H]1C[C@@H]([C@H](O)CC2CC(=O)NC(=O)C2)C(=O)[C@@H](C)C1 [cycloheximide, reference compound]
[3]; 100 mM ethanol 24 h, 30 μg/ml CHX for the last 12 h
  ethanol-mediated increases in TH protein levels: did not inhibit

## CCO [ethanol]
[3]; 10 mM ethanol, 24 h
  immunoreactivity of TH: significant increase
[3]; 100 mM ethanol 24 h, detected 24 h after ethanol washout
  duration of ethanol-induced increase in TH protein levels: long-lasting
[3]; 100 mM ethanol, after 24 h and 48 h of exposure
  TH protein levels: increase
[3]; different concentrations of ethanol, 24 h
  increase in TH protein levels, dependence on ethanol concentration: dose-dependent manner
[4]; 100 mM ethanol alone, 12 h or 24 h
  protein level of Hsp90: did not alter
[5]
  association of TH with Hsp90: induced
[6]; 100 mM ethanol 24 h before pulse-chase, compared to control
  quantity of 35S-labeled TH protein at all points in the chase time course: increase
[7]
  TH mRNA: did not increase
[8]
  association between Akt kinase and Hsp90: did not alter

## ibogaine [reference compound]
[3]; 100 mM ethanol 24 h, 10 μM ibogaine added for the last 12 h
  ethanol induced increases in TH levels: inhibited
[9]
  GDNF gene expression: increases

B1: GDNF: Recombinant human GDNF polypeptide (glial cell line derived neurotropic factor) from R&D Systems (protein, UniProt P39905 78-211, looked up)
Glial cell line-derived …: SPDKQMAVLPRRERNRQAAAANPENSRGKGRRGQRGKNRGCVLTAIHLNVTDLGLGYETKEELIFRYCSGSCDAAETTYDKILKNLSRNRRLVSDKVGQACCRPIAFDDDLSFLDDNLVYHILRKHSAKRCGCI
[3]; [10]
  ethanol-mediated increase in TH levels: reversed
[4]; [10]
  Hsp90 immunoreactivity: not due to alteration
[5]; 25 ng/ml GDNF added for the last 12 h
  ethanol-mediated association of Hsp90 with TH: reversed
[6]; [10]
  quantity of 35S-labeled TH at all points on the chase time course: downregulates
